{"source": "patent US20090068290A1", "about": "“BIFEPRUNOX DOSES FOR TREATING SCHIZOPHRENIA” (priority 2006, published 2009)", "key": {"[1]": {"tested_on": "adult subjects with schizophrenia", "experiment": "CGI Severity of Illness score, Clinical Study Three", "format": "in vivo, human", "conditions": "LOCF; for Change from Baseline in CGI Severity of Illness Score, Mean (SD) / Change from Baseline in CGI Severity of Illness Score, Median: 15 mg", "from_the_text": "SECONDARY OBJECTIVES To assess the efficacy of bifeprunox in treating schizophrenia using the Positive Symptom sub-scale score of the PANSS, the Negative Symptom sub-scale score of the PANSS, the General Psychopathology sub-scale of the PANSS, Brief Psychiatric Rating Scale (BPRS) total score derived from the PANSS, BPRS psychosis score derived from the PANSS, the Clinical Global Impression Severity of Illness score (CGI-S), the Clinical Global Impression Improvement score (CGI-I), CGI-I responder rate, PANSS responder rate based on the PANSS total score, Calgary Depression Scale for Schizophrenia (CDSS), and Subject Satisfaction rating.\nThere were four treatment arms in this study, approximately 144 subjects per arm. […] After completing the Single-Blind Placebo Lead-in Period of at least three days, bifeprunox-treated subjects were titrated from 0.25 mg up to 20 mg/day or 30 mg/day according to a standardized titration scheme over a seven- or eight-day period, respectively. When the assigned dose was reached, subjects were maintained at that dose for the remainder of the six week treatment period. […] Subjects were hospitalized (if not already inpatients) after eligibility for study entry was verified, starting from the Screening Visit until at least 10 days after Baseline. Subjects could be hospitalized longer than 10 days if considered medically necessary by the Investigator. Rating scale assessments for efficacy and abnormal movement disorders were done weekly except for Week 5. […] Subject satisfaction with study medication was assessed at Week 6."}, "[2]": {"tested_on": "adult subjects with schizophrenia", "experiment": "BPRS total score, Clinical Study One", "format": "in vivo, human", "conditions": "Risperidone 6 mg, ITT population", "method": "(§1) There were five treatment groups in this study. […] Study medication was administered once daily. After Baseline measurements were performed, the titration phase was begun. Bifeprunox treated subjects were titrated up to 5 mg, 10 mg or 20 mg according to a standardized titration schedule (Day 1: 0.125 mg, Day 2: 0.25 mg, Day 3: 0.5 mg, Day 4: 1.0 mg, Day 5: 2.0 mg, Day 6: 5.0 mg, Day 7: 10.0 mg, Day 8: 20 mg). When the assigned dose was reached, subjects were maintained at that dose for the remainder of the six-week treatment period.\nThe change in the Positive and Negative Symptom Scale (PANSS) total score, from baseline to endpoint, was the primary outcome measure. Secondary efficacy measures included: PANSS positive, PANSS negative, PANSS general psychopathology (GPP) score, PANSS-derived Brief Psychiatric Rating Scale (BPRS) score, Clinical Global Impressions-Severity of Illness (CGI-S), CGI-Improvement (CGI-I) scores, and responder rates. Safety and tolerability evaluations included extrapyramidal symptoms (EPS), weight gain, lipid profile, and serum prolactin."}, "[3]": {"tested_on": "adult subjects with schizophrenia", "experiment": "CGI Improvement score, Clinical Study Two", "format": "in vivo, human", "conditions": "6 mg, LOCF", "method": "Rating scale assessments were performed weekly, except for week 5, to measure the change from baseline to endpoint of the PANSS total score. Other assessments included: PANSS positive symptom subscale score, PANSS negative symptom subscale score, PANSS general pschopathology subscale score, BPRS total score, BPRS psychosis score, the CGI-S score, the CGI-I score, responder rates based on the PANSS total score, and the Calgary Depression Scale for Schizophrenia (CDSS). […]\nSubjects who completed this study had the option to continue in the long-term. […] Risperidone-treated subjects were titrated from 2 mg to 6 mg daily over a three-day period and were subsequently maintained at 6 mg/day for the remainder of the treatment period. […] Blood samples were also obtained at Screening/Baseline, Week 3, and Week 6 for clinical laboratory assessments."}, "[4]": {"tested_on": "adult subjects with schizophrenia", "experiment": "CGI responder rate, Clinical Study One", "format": "in vivo, human", "conditions": "6 mg", "method": "as §1\nCLINICAL STUDY ONE: A CGI responder is defined as a subject who is categorized as “very much improved” or “much improved” on the CGI Improvement scale."}, "[5]": {"experiment": "Pooled metabolic analysis, 6-week studies: body weight", "conditions": "6-week studies", "excerpt": "OBJECTIVE: To examine the metabolic effects of bifeprunox in patients with acute and stable schizophrenia.\nMETHODS: Metabolic data was compiled from one 6-month and four 6-week studies (i.e., a treatment period) of bifeprunox in patients with stable and acute schizophrenia, respectively. In the 6-month study, patients received bifeprunox (n=331) or placebo (PBO) (n=166). […] Metabolic evaluations included body weight, body mass index (BMI), plasma glucose and lipid profiles. Fasting glucose and lipid values were assessed in one 6-week study and in the 6-month study. Triglyceride:HDL ratio (TG:HDL) was calculated as a marker of insulin resistance. No statistical analyses were performed; only descriptive statistics are presented."}}}
{"smiles": "Cc1cc2c(s1)Nc1ccccc1N=C2N1CCN(C)CC1", "note": "[Olanzapine, olanzapine, reference compound]", "values": [{"measurement": "Change from Baseline in CGI Severity of Illness Score, Mean (SD)", "setting": "[1]; Week 1", "result": "−0.40 (0.65)"}, {"measurement": "Change from Baseline in CGI Severity of Illness Score, Median", "setting": "[1]; Week 1", "result": 0.0}, {"measurement": "Change from Baseline in CGI Severity of Illness Score, Mean (SD)", "setting": "[1]; Week 2", "result": "−0.71 (0.76)"}, {"measurement": "Change from Baseline in CGI Severity of Illness Score, Median", "setting": "[1]; Week 2", "result": "−1.0"}, {"measurement": "Change from Baseline in CGI Severity of Illness Score, Mean (SD)", "setting": "[1]; Week 3", "result": "−0.85 (0.87)"}, {"measurement": "Change from Baseline in CGI Severity of Illness Score, Median", "setting": "[1]; Week 3", "result": "−1.0"}, {"measurement": "Change from Baseline in CGI Severity of Illness Score, Mean (SD)", "setting": "[1]; Week 4", "result": "−0.92 (0.90)"}, {"measurement": "Change from Baseline in CGI Severity of Illness Score, Median", "setting": "[1]; Week 4", "result": "−1.0"}, {"measurement": "Change from Baseline in CGI Severity of Illness Score, Mean (SD)", "setting": "[1]; Week 6/Endpoint", "result": "−1.03 (1.00)"}, {"measurement": "Change from Baseline in CGI Severity of Illness Score, Median", "setting": "[1]; Week 6/Endpoint", "result": "−1.0"}, {"measurement": "mean change (SD) from Baseline to Endpoint in CGI severity of illness score", "setting": "[1]; olanzapine 15 mg, ITT", "result": "−1.03 (1.00)"}]}
{"smiles": "Cc1nc2n(c(=O)c1CCN1CCC(c3noc4cc(F)ccc34)CC1)CCCC2", "note": "[Risperidone, risperidone, reference compound]", "values": [{"measurement": "Change from Baseline in BPRS Total Score, Mean (S.D.)", "setting": "[2]; Endpoint LOCF", "result": "−9.2 (8.9)"}, {"measurement": "Change from Baseline in BPRS Total Score, Median", "setting": "[2]; Endpoint LOCF", "result": "−9"}, {"measurement": "Change from Baseline in BPRS Total Score, Mean (S.D.)", "setting": "[2]; Week 1, LOCF", "result": "−4.6 (6.5)"}, {"measurement": "Change from Baseline in BPRS Total Score, Median", "setting": "[2]; Week 1, LOCF", "result": "−3"}, {"measurement": "Change from Baseline in BPRS Total Score, Mean (S.D.)", "setting": "[2]; Week 2, LOCF", "result": "−7.6 (8.4)"}, {"measurement": "Change from Baseline in BPRS Total Score, Median", "setting": "[2]; Week 2, LOCF", "result": "−7"}, {"measurement": "Change from Baseline in BPRS Total Score, Mean (S.D.)", "setting": "[2]; Week 3, LOCF", "result": "−9.1 (8.4)"}, {"measurement": "Change from Baseline in BPRS Total Score, Median", "setting": "[2]; Week 3, LOCF", "result": "−9"}, {"measurement": "Change from Baseline in BPRS Total Score, Mean (S.D.)", "setting": "[2]; Week 4, LOCF", "result": "−8.6 (9.0)"}, {"measurement": "Change from Baseline in BPRS Total Score, Median", "setting": "[2]; Week 4, LOCF", "result": "−7"}, {"measurement": "CGI Improvement Minimally Improved, %", "setting": "[3]; Week 2", "result": "(40%)"}, {"measurement": "CGI Improvement Minimally Worse, %", "setting": "[3]; Week 2", "result": "(5%)"}, {"measurement": "CGI Improvement Much Improved, %", "setting": "[3]; Week 2", "result": "(30%)"}, {"measurement": "CGI Improvement Much Worse, %", "setting": "[3]; Week 2", "result": "(3%)"}, {"measurement": "CGI Improvement No Change, %", "setting": "[3]; Week 2", "result": "(16%)"}, {"measurement": "CGI Improvement Very Much Improved, %", "setting": "[3]; Week 2", "result": "(5%)"}, {"measurement": "CGI Improvement Minimally Improved, %", "setting": "[3]; Week 3", "result": "(33%)"}, {"measurement": "CGI Improvement Minimally Worse, %", "setting": "[3]; Week 3", "result": "(5%)"}, {"measurement": "CGI Improvement Much Improved, %", "setting": "[3]; Week 3", "result": "(36%)"}, {"measurement": "CGI Improvement Much Worse, %", "setting": "[3]; Week 3", "result": "(5%)"}, {"measurement": "CGI Improvement No Change, %", "setting": "[3]; Week 3", "result": "(13%)"}, {"measurement": "CGI Improvement Very Much Improved, %", "setting": "[3]; Week 3", "result": "(9%)"}, {"measurement": "CGI Improvement Minimally Improved, %", "setting": "[3]; Week 4", "result": "(25%)"}, {"measurement": "CGI Improvement Minimally Worse, %", "setting": "[3]; Week 4", "result": "(5%)"}, {"measurement": "CGI Improvement Much Improved, %", "setting": "[3]; Week 4", "result": "(38%)"}, {"measurement": "CGI Improvement Much Worse, %", "setting": "[3]; Week 4", "result": "(5%)"}, {"measurement": "CGI Improvement No Change, %", "setting": "[3]; Week 4", "result": "(14%)"}, {"measurement": "CGI Improvement Very Much Improved, %", "setting": "[3]; Week 4", "result": "(13%)"}, {"measurement": "CGI Improvement Minimally Improved, %", "setting": "[3]; Week 6/Endpoint", "result": "(23%)"}, {"measurement": "CGI Improvement Minimally Worse, %", "setting": "[3]; Week 6/Endpoint", "result": "(5%)"}, {"measurement": "CGI Improvement Much Improved, %", "setting": "[3]; Week 6/Endpoint", "result": "(36%)"}, {"measurement": "CGI Improvement Much Worse, %", "setting": "[3]; Week 6/Endpoint", "result": "(5%)"}, {"measurement": "CGI Improvement No Change, %", "setting": "[3]; Week 6/Endpoint", "result": "(15%)"}, {"measurement": "CGI Improvement Very Much Improved, %", "setting": "[3]; Week 6/Endpoint", "result": "(16%)"}, {"measurement": "CGI Improvement Very Much Worse, %", "setting": "[3]; Week 6/Endpoint", "result": "(<1%)"}, {"measurement": "CGI Responder at Endpoint (LOCF), %", "setting": "[4]", "result": 36, "unit": "%"}, {"measurement": "mean weight increase at endpoint", "setting": "[5]; pooled", "result": 1.7, "unit": "kg"}, {"measurement": "mean weight change", "setting": "[5]; pooled (overall summary)", "result": "+1.7 kg"}]}
